In PMC7069944, “Amino acid levels determine metabolism and CYP450 function of hepatocytes and hepatoma cell lines” (Nature Communications, 2020):
Values joined by “and” are separate entries in the source; they are usually repeats but may differ in a detail not shown here. Equal values may be shown once.

Assays:
HepG2 = assay: Repeated-exposure DILI training compounds, resazurin conversion, HepG2
Method in brief: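 PSC-derived cells differentiated in 384-well format, plus HepG2 seeded at 40,000 cells/well, received drugs after 8 h of attachment; untreated wells served as negative controls. Viability was measured by resazurin conversion and related to therapeutic Cmax values.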

HLC = assay: Repeated-exposure DILI training compounds, resazurin conversion, HLC
Method in brief: (§1)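 Hepatotoxicity prediction used a miniaturized 384-well differentiation setup, scoring viability through resazurin reduction relative to Cmax.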

HC3X = assay: Repeated-exposure DILI training compounds, resazurin conversion, HC3X; details: HC3X AAGLY D40
Method in brief: as §1

HC6X = assay: Repeated-exposure DILI training compounds, resazurin conversion, HC6X
Method in brief: as §1

Q: With `CCN(CC)C(=O)/C(C#N)=C/c1cc(O)c(O)c([N+](=O)[O-])c1` [entacapone] as the molecule, how does the “Resazurin conversion, repeated exposure (Supplementary Figure 7D)” value (“Resazurin conversion, repeated exposure” for short) (HepG2; HepG2 AAGLY D30, 10 uM) read?
A: 102.7 and 108.3 and 96.3 and 95.5 and 95.9 and 100.8

Q: And the “Resazurin conversion, repeated exposure” value (HepG2; HepG2 AAGLY D30, 30 uM)?
A: 105.3 and 123.1 and 95.9 and 95.5 and 94.4 and 98.6

Q: And the “Resazurin conversion, repeated exposure” value (HepG2; HepG2 AAGLY D30, 50 uM)?
A: 152.4 and 137.5 and 121.1 and 116.5 and 124.4 and 119.5

Q: What about the “Resazurin conversion, repeated exposure” value (HepG2; HepG2 AAGLY D30, 100 uM) of the same molecule?
A: 127.9 and 149.8 and 134.1 and 127 and 120.4 and 132.2

Q: What about the “Resazurin conversion, repeated exposure” value (HepG2; HepG2 AAGLY D30, 300 uM) of the same molecule?
A: 69.6 and 78.3 and 68.3 and 72.6 and 71.7 and 76.3

Q: And the “Resazurin conversion, repeated exposure” value (HepG2; HepG2 AAGLY D30, 500 uM)?
A: 44.9 and 57 and 46.8 and 54.7 and 52.8 and 66

Q: And the “Resazurin conversion, repeated exposure” value (HepG2; HepG2 AAGLY D30, 1000 uM)?
A: 37.4 and 37.7 and 35.2 and 41.1 and 43.2 and 46

Q: What about the “Resazurin conversion, repeated exposure” value (HepG2; HepG2 AAGLY D30, 2000 uM) of the same molecule?
A: 19.3 and 22.6 and 21.6 and 20.1 and 20.8

Q: What about the “Resazurin conversion, repeated exposure” value (HepG2; HepG2 AAGLY D30, 4000 uM) of the same molecule?
A: 12.5 and 14.6 and 13 and 12.9 and 13.1 and 20.4

Q: And the “Resazurin conversion, repeated exposure” value (HepG2; HepG2 CTL D7, 10 uM)?
A: 93.9

Q: What about the “Resazurin conversion, repeated exposure” value (HepG2; HepG2 CTL D7, 30 uM) of the same molecule?
A: 102.5 and 112.8 and 108.6 and 134.8 and 127 and 107.9

Q: And the “Resazurin conversion, repeated exposure” value (HepG2; HepG2 CTL D7, 50 uM)?
A: 101.5 and 107.8 and 111.6 and 126.8 and 128.3 and 109

Q: And the “Resazurin conversion, repeated exposure” value (HepG2; HepG2 CTL D7, 100 uM)?
A: 95.8 and 101 and 100.7 and 120.3 and 125.1 and 104.1

Q: What about the “Resazurin conversion, repeated exposure” value (HepG2; HepG2 CTL D7, 300 uM) of the same molecule?
A: 67.5 and 62.9 and 68.7 and 80.5 and 91.5 and 70.1

Q: And the “Resazurin conversion, repeated exposure” value (HepG2; HepG2 CTL D7, 500 uM)?
A: 36 and 31.8 and 34.4 and 55.7 and 53 and 36.2

Q: And the “Resazurin conversion, repeated exposure” value (HepG2; HepG2 CTL D7, 1000 uM)?
A: 9.5 and 6.9 and 7.9 and 10.8 and 9.3 and 8.4

Q: And the “Resazurin conversion, repeated exposure” value (HepG2; HepG2 CTL D7, 2000 uM)?
A: 3.6 and 3.2 and 3.7 and 3.8 and 3.4

Q: What about the “Resazurin conversion, repeated exposure” value (HepG2; HepG2 CTL D7, 4000 uM) of the same molecule?
A: 2.7 and 2 and 2.5 and 2.9 and 3

Q: What about the “Resazurin conversion, repeated exposure” value (HLC; HLC AAGLY D40, 10 uM) of the same molecule?
A: 72 and 89.5 and 61.6 and 92.2 and 93.5 and 83.6

Q: What about the “Resazurin conversion, repeated exposure” value (HLC; HLC AAGLY D40, 30 uM) of the same molecule?
A: 103.8 and 101.2 and 95.5 and 67.7 and 80.3 and 90.5

Q: And the “Resazurin conversion, repeated exposure” value (HLC; HLC AAGLY D40, 50 uM)?
A: 106.7 and 75.7 and 96.1 and 56 and 97.2 and 93.3

Q: What about the “Resazurin conversion, repeated exposure” value (HLC; HLC AAGLY D40, 100 uM) of the same molecule?
A: 90.9 and 65.1 and 97.6 and 81.7 and 65.8 and 91.6

Q: What about the “Resazurin conversion, repeated exposure” value (HLC; HLC AAGLY D40, 300 uM) of the same molecule?
A: 81.3 and 79.9 and 79 and 69.8 and 111.3 and 89.9

Q: What about the “Resazurin conversion, repeated exposure” value (HLC; HLC AAGLY D40, 500 uM) of the same molecule?
A: 97.3 and 87.8 and 100.8 and 81.9 and 90.2 and 84.4

Q: What about the “Resazurin conversion, repeated exposure” value (HLC; HLC AAGLY D40, 1000 uM) of the same molecule?
A: 107 and 95.5 and 86.2 and 93 and 108.2 and 101.5

Q: What about the “Resazurin conversion, repeated exposure” value (HLC; HLC LDM D40, 10 uM) of the same molecule?
A: 80.5 and 101.6 and 104.1 and 93.5 and 79.5 and 109

Q: What about the “Resazurin conversion, repeated exposure” value (HLC; HLC LDM D40, 30 uM) of the same molecule?
A: 122.3 and 84.7 and 104.1 and 84.4 and 84 and 104

Q: And the “Resazurin conversion, repeated exposure” value (HLC; HLC LDM D40, 50 uM)?
A: 80.6 and 88.8 and 112.5 and 118.1 and 65.6 and 98.1

Q: And the “Resazurin conversion, repeated exposure” value (HLC; HLC LDM D40, 100 uM)?
A: 89.9 and 104.8 and 77.5 and 95.7 and 95.5 and 115.1

Q: What about the “Resazurin conversion, repeated exposure” value (HLC; HLC LDM D40, 300 uM) of the same molecule?
A: 108.5 and 82.7 and 104.1 and 95.3 and 63.3 and 100.3

Q: What about the “Resazurin conversion, repeated exposure” value (HLC; HLC LDM D40, 500 uM) of the same molecule?
A: 94.1 and 111.1 and 84.2 and 118.9 and 108.7 and 108.4

Q: And the “Resazurin conversion, repeated exposure” value (HLC; HLC LDM D40, 1000 uM)?
A: 72.7 and 101.3 and 78 and 89.4 and 85.4 and 124.1

Q: And the “Resazurin conversion, repeated exposure” value (HC3X; 10 uM)?
A: 105.5 and 90.3 and 90.2 and 88.2 and 71.2 and 75.6

Q: What about the “Resazurin conversion, repeated exposure” value (HC3X; 30 uM) of the same molecule?
A: 115.8 and 62.8 and 93.9 and 99.3 and 81.1 and 63.6

Q: And the “Resazurin conversion, repeated exposure” value (HC3X; 50 uM)?
A: 82.1 and 69.4 and 93.5 and 81.3 and 74.4 and 55.8

Q: And the “Resazurin conversion, repeated exposure” value (HC3X; 100 uM)?
A: 49 and 46.9 and 84.4 and 61.2 and 50.7 and 51.6

Q: And the “Resazurin conversion, repeated exposure” value (HC3X; 500 uM)?
A: 18.2 and 17.1 and 16.8 and 16 and 16.9 and 13.4

Q: And the “Resazurin conversion, repeated exposure” value (HC3X; 1000 uM)?
A: 8.7 and 10.7 and 12.7 and 12.4 and 7.5

Q: What about the “Resazurin conversion, repeated exposure” value (HC3X; 2000 uM) of the same molecule?
A: 4 and 3.7 and 3.3 and 2.8 and 3

Q: What about the “Resazurin conversion, repeated exposure” value (HC3X; 4000 uM) of the same molecule?
A: 2.3 and 2.9 and 3.3 and 2.8 and 2.6 and 2.4

Q: And the “Resazurin conversion, repeated exposure” value (HC6X; HC6X AAGLY D40, 10 uM)?
A: 116.9 and 68.5 and 106.9 and 88.2 and 63 and 119.9

Q: What about the “Resazurin conversion, repeated exposure” value (HC6X; HC6X AAGLY D40, 30 uM) of the same molecule?
A: 103.2 and 75.2 and 84.6 and 107.4 and 73.5 and 104.8

Q: What about the “Resazurin conversion, repeated exposure” value (HC6X; HC6X AAGLY D40, 50 uM) of the same molecule?
A: 71.4 and 61.4 and 89.5 and 66.5 and 69.6 and 76.8

Q: And the “Resazurin conversion, repeated exposure” value (HC6X; HC6X AAGLY D40, 100 uM)?
A: 43.6 and 55 and 60.5 and 66.1 and 44.9 and 64.9

Q: What about the “Resazurin conversion, repeated exposure” value (HC6X; HC6X AAGLY D40, 300 uM) of the same molecule?
A: 37.1 and 36.3 and 44.1 and 42.3 and 33.5 and 37.5

Q: What about the “Resazurin conversion, repeated exposure” value (HC6X; HC6X AAGLY D40, 500 uM) of the same molecule?
A: 24.4 and 21.6 and 32.3 and 32.9 and 27.4 and 25.1

Q: What about the “Resazurin conversion, repeated exposure” value (HC6X; HC6X AAGLY D40, 1000 uM) of the same molecule?
A: 25.5 and 25.3 and 37.2 and 22.8 and 23.6 and 21

Q: What about the “Resazurin conversion, repeated exposure” value (HC6X; HC6X AAGLY D40, 2000 uM) of the same molecule?
A: 12 and 11.8 and 15.1 and 12.5 and 11.4 and 12.9

Q: What about the “Resazurin conversion, repeated exposure” value (HC6X; HC6X AAGLY D40 Remove dox, 10 uM) of the same molecule?
A: 62.8 and 75.4 and 93.9 and 104.7 and 88.6 and 79.3

Q: And the “Resazurin conversion, repeated exposure” value (HC6X; HC6X AAGLY D40 Remove dox, 30 uM)?
A: 86.2 and 86.6 and 84.6 and 85 and 82.3

Q: And the “Resazurin conversion, repeated exposure” value (HC6X; HC6X AAGLY D40 Remove dox, 100 uM)?
A: 87.4 and 81.5 and 70.5 and 95.4 and 102 and 63.6

Q: What about the “Resazurin conversion, repeated exposure” value (HC6X; HC6X AAGLY D40 Remove dox, 300 uM) of the same molecule?
A: 89.2 and 80.7 and 67.2 and 48.2 and 75.7 and 47.5

Q: What about the “Resazurin conversion, repeated exposure” value (HC6X; HC6X AAGLY D40 Remove dox, 2000 uM) of the same molecule?
A: 43.7 and 44 and 38.6 and 66.6 and 63.4 and 64.5
